Data as given in PubChem BioAssay AID2060602 (Molecular Pharmacology Branch, DTP, NCI, 2025).

Tested on: 648629-189-R-J1-PDC complex spheroids viability
Assay: Anticancer human tumor 648629-189-R-J1-PDC patient-derived bladder carcinoma cell line growth inhibition [CLK]
Conditions: for IC50: curve of first compound; for viability, T/C: stronger effect = lower value
Procedure, shortened: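 Patient-derived tumor cells grown as complex spheroids with HUVEC endothelial cells and mesenchymal stem cells, treated with drug combinations. Concentrations descend in half-log steps from near clinical Cmax, or from 10 microM if Cmax unknown.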

[1] = second compound 0.0316 µM, first compound 0.00316 µM
[2] = second compound 0.0316 µM, first compound 0.01 µM
[3] = second compound 0.0316 µM, first compound 0.0316 µM
[4] = second compound 0.0316 µM, first compound 0.1 µM
[5] = second compound 0.0316 µM, first compound 0.316 µM
[6] = second compound 0.0316 µM, first compound 1 µM
[7] = second compound 0.1 µM, first compound 0.00316 µM
[8] = second compound 0.1 µM, first compound 0.01 µM
[9] = second compound 0.1 µM, first compound 0.0316 µM
[10] = second compound 0.1 µM, first compound 0.1 µM
[11] = second compound 0.1 µM, first compound 0.316 µM
[12] = second compound 0.1 µM, first compound 1 µM
[13] = second compound 0.316 µM, first compound 0.00316 µM
[14] = second compound 0.316 µM, first compound 0.01 µM
[15] = second compound 0.316 µM, first compound 0.0316 µM
[16] = second compound 0.316 µM, first compound 0.1 µM
[17] = second compound 0.316 µM, first compound 0.316 µM
[18] = second compound 0.316 µM, first compound 1 µM
[19] = second compound 1 µM, first compound 0.00316 µM
[20] = second compound 1 µM, first compound 0.01 µM
[21] = second compound 1 µM, first compound 0.0316 µM
[22] = second compound 1 µM, first compound 0.1 µM
[23] = second compound 1 µM, first compound 0.316 µM
[24] = second compound 1 µM, first compound 1 µM
[25] = second compound 3.16 µM, first compound 0.00316 µM
[26] = second compound 3.16 µM, first compound 0.01 µM
[27] = second compound 3.16 µM, first compound 0.0316 µM
[28] = second compound 3.16 µM, first compound 0.1 µM
[29] = second compound 3.16 µM, first compound 0.316 µM
[30] = second compound 3.16 µM, first compound 1 µM
[31] = second compound 10 µM, first compound 0.00316 µM
[32] = second compound 10 µM, first compound 0.01 µM
[33] = second compound 10 µM, first compound 0.0316 µM
[34] = second compound 10 µM, first compound 0.1 µM
[35] = second compound 10 µM, first compound 0.316 µM
[36] = second compound 10 µM, first compound 1 µM
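For viability, T/C in this document: drug exposure lasted seven days before viability readout; 100% = DMSO vehicle control wells.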

## CCN1CCN(Cc2ccc(Nc3ncc(F)c(-c4cc(F)c5nc(C)n(C(C)C)c5c4)n3)nc2)CC1 + CN1CCN(c2cc(C(=O)Nc3cc4cc(-c5cnn(C)c5)ccc4cn3)ccn2)CC1
Second compound 0.0316 µM
  IC50: > 1000 nM
Second compound 0.1 µM
  IC50: > 1000 nM
Second compound 0.316 µM
  IC50: < 3.16 nM
Second compound 1 µM
  IC50: < 3.16 nM
Second compound 3.16 µM
  IC50: < 3.16 nM
Second compound 10 µM
  IC50: < 3.16 nM
[1]
  viability, T/C: 108%
[2]
  viability, T/C: 101%
[3]
  viability, T/C: 101%
[4]
  viability, T/C: 127%
[5]
  viability, T/C: 122%
[6]
  viability, T/C: 123%
[7]
  viability, T/C: 104%
[8]
  viability, T/C: 104%
[9]
  viability, T/C: 102%
[10]
  viability, T/C: 101%
[11]
  viability, T/C: 108%
[12]
  viability, T/C: 101%
[13]
  viability, T/C: 37%
[14]
  viability, T/C: 48.5%
[15]
  viability, T/C: 41.7%
[16]
  viability, T/C: 50.6%
[17]
  viability, T/C: 47.3%
[18]
  viability, T/C: 40.4%
[19]
  viability, T/C: 0.42%
[20]
  viability, T/C: 0.24%
[21]
  viability, T/C: 0.61%
[22]
  viability, T/C: 0.35%
[23]
  viability, T/C: 0.54%
[24]
  viability, T/C: 0.32%
[25]
  viability, T/C: 0.14%
[26]
  viability, T/C: 0.26%
[27]
  viability, T/C: 0.49%
[28]
  viability, T/C: 0.15%
[29]
  viability, T/C: 0.16%
[30]
  viability, T/C: 0.16%
[31]
  viability, T/C: 0.21%
[32]
  viability, T/C: 0.21%
[33]
  viability, T/C: 0.17%
[34]
  viability, T/C: 0.16%
[35]
  viability, T/C: 1.22%
[36]
  viability, T/C: 1.51%

## CCc1c2c(nc3ccc(O)cc13)-c1cc3c(c(=O)n1C2)COC(=O)[C@]3(O)CC + CN1CCN(c2cc(C(=O)Nc3cc4cc(-c5cnn(C)c5)ccc4cn3)ccn2)CC1
Second compound 0.0316 µM
  IC50: < 3.16 nM
Second compound 0.1 µM
  IC50: < 3.16 nM
Second compound 0.316 µM
  IC50: < 3.16 nM
Second compound 1 µM
  IC50: < 3.16 nM
Second compound 3.16 µM
  IC50: < 3.16 nM
Second compound 10 µM
  IC50: < 3.16 nM
[1]
  viability, T/C: 36.5%
[2]
  viability, T/C: 14.7%
[3]
  viability, T/C: 7.53%
[4]
  viability, T/C: 5.28%
[5]
  viability, T/C: 3.93%
[6]
  viability, T/C: 3.89%
[7]
  viability, T/C: 29%
[8]
  viability, T/C: 15.4%
[9]
  viability, T/C: 6.89%
[10]
  viability, T/C: 4.76%
[11]
  viability, T/C: 4.13%
[12]
  viability, T/C: 4.88%
[13]
  viability, T/C: 22.5%
[14]
  viability, T/C: 16.7%
[15]
  viability, T/C: 10.8%
[16]
  viability, T/C: 6.46%
[17]
  viability, T/C: 6.71%
[18]
  viability, T/C: 3.75%
[19]
  viability, T/C: 0.15%
[20]
  viability, T/C: 0.14%
[21]
  viability, T/C: 0.15%
[22]
  viability, T/C: 0.06%
[23]
  viability, T/C: 0.21%
[24]
  viability, T/C: 1.34%
[25]
  viability, T/C: 0.05%
[26]
  viability, T/C: 1.41%
[27]
  viability, T/C: 0.1%
[28]
  viability, T/C: 0.07%
[29]
  viability, T/C: 0.3%
[30]
  viability, T/C: 0.54%
[31]
  viability, T/C: 0.05%
[32]
  viability, T/C: 0.52%
[33]
  viability, T/C: 0.17%
[34]
  viability, T/C: 0.15%
[35]
  viability, T/C: 0.22%
[36]
  viability, T/C: 0.48%

## C=C(F)C(=O)N1CCN(c2nc(OCC3CCCN3C)nc3c2CCN(c2cccc4cccc(Cl)c24)C3)CC1CC#N (stereo unspecified) + CN1CCN(c2cc(C(=O)Nc3cc4cc(-c5cnn(C)c5)ccc4cn3)ccn2)CC1
Second compound 0.0316 µM
  IC50: 5690 nM
Second compound 0.1 µM
  IC50: 5430 nM
Second compound 0.316 µM
  IC50: < 31.6 nM
Second compound 1 µM
  IC50: < 31.6 nM
Second compound 3.16 µM
  IC50: < 31.6 nM
Second compound 10 µM
  IC50: < 31.6 nM
[3]
  viability, T/C: 111%
[4]
  viability, T/C: 105%
[5]
  viability, T/C: 109%
[6]
  viability, T/C: 126%
Second compound 0.0316 µM, first compound 3.16 µM
  viability, T/C: 102%
Second compound 0.0316 µM, first compound 10 µM
  viability, T/C: 0.2%
[9]
  viability, T/C: 106%
[10]
  viability, T/C: 114%
[11]
  viability, T/C: 98.5%
[12]
  viability, T/C: 106%
Second compound 0.1 µM, first compound 3.16 µM
  viability, T/C: 94.2%
Second compound 0.1 µM, first compound 10 µM
  viability, T/C: 0.16%
[15]
  viability, T/C: 46%
[16]
  viability, T/C: 45.1%
[17]
  viability, T/C: 50%
[18]
  viability, T/C: 50.1%
Second compound 0.316 µM, first compound 3.16 µM
  viability, T/C: 47.5%
Second compound 0.316 µM, first compound 10 µM
  viability, T/C: 0.75%
[21]
  viability, T/C: 0.54%
[22]
  viability, T/C: 0.36%
[23]
  viability, T/C: 0.62%
[24]
  viability, T/C: 0.47%
Second compound 1 µM, first compound 3.16 µM
  viability, T/C: 0.48%
Second compound 1 µM, first compound 10 µM
  viability, T/C: 0.1%
[27]
  viability, T/C: 0.13%
[28]
  viability, T/C: 0.15%
[29]
  viability, T/C: 0.17%
[30]
  viability, T/C: 0.16%
Second compound 3.16 µM, first compound 3.16 µM
  viability, T/C: 0.14%
Second compound 3.16 µM, first compound 10 µM
  viability, T/C: 0.11%
[33]
  viability, T/C: 0.21%
[34]
  viability, T/C: 0.19%
[35]
  viability, T/C: 0.21%
[36]
  viability, T/C: 0.24%
Second compound 10 µM, first compound 3.16 µM
  viability, T/C: 0.25%
Second compound 10 µM, first compound 10 µM
  viability, T/C: 0.21%
